One assay deals with T1, Glucocorticoid receptor (Rattus norvegicus, UniProt P06536).
T1 construct: The thymuses were removed and homogenized; from tissue; host or cells: thymus cytosol (105,000 g supernatant) of suprarenalectomized male rats
T1 sequence (P06536 1-795): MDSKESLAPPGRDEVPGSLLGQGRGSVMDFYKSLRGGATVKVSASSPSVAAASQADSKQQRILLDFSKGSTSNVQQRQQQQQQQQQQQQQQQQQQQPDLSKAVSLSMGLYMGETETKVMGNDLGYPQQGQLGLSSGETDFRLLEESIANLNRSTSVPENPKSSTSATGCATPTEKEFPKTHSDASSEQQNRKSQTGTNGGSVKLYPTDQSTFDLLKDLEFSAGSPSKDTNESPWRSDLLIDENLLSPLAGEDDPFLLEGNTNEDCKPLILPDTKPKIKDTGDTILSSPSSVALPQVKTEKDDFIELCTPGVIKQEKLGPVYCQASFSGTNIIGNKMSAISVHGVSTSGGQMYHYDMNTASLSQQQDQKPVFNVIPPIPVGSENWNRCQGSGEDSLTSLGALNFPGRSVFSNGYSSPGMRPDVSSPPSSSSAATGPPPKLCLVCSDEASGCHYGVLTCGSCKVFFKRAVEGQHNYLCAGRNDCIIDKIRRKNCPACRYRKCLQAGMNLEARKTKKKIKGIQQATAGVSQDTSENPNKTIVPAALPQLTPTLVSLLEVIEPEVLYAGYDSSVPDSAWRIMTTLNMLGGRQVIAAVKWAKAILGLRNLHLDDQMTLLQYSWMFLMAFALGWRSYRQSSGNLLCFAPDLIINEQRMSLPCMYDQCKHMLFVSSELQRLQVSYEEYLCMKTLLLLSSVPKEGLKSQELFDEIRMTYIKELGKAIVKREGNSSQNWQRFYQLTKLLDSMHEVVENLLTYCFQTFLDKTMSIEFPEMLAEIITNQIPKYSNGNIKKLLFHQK
The assay is described as follows: relative bond affinity for the glucocorticoid receptor of rat's thymus. The format is binding. As to conditions: tritiated dexamethasone 2.5 nM, RBA=100 (CH)/(CX), reference cold dexamethasone; for relative bond affinity (RBA), Glucocorticoid 4H: 4 hours incubation at 0° C.; for relative bond affinity (RBA), Glucocorticoid 24H: 24 hours incubation at 0° C. As to the method: 1) Measurement of the relative bond affinity for the receptors of steroid hormones:
Glucocorticoid receptor of rat's thymus:
Male rats weighing 160 to 200 g were suprarenalectomized and 4 to 8 days after this removal, the animals were killed. The thymuses were removed and homogenized at 0° C. using a Potter teflon-flask in a (TSD) 10 Mm Tris, 0.25M saccharose, 2 mM dithiothreitol, HCl pH 7.4 buffer (1 g of tissue per 10 ml of TSD). The homogenate was then ultracentrifuged at 105,000 g×90 mn at 0° C. Aliquots of the supernatant "cytosol", were incubated at 0° C. for 4 hours and 24 hours with a constant concentration (T=2.5 nM) of tritiated dexamethasone in the presence of increasing concentrations (0-2,500 nM) of cold dexamethasone or of the cold product under test. The concentration of the bonded tritiated dexamethasone (B) was then measured in each incubate by the technique of adsorption with carbon-dextran.
Calculation of the relative bond affinity:
The calculation of the relative bond affinity (RBA) was identical for all receptors. The following two curves were drawn: the percentage of bonded tritiated hormone B/T as a function of the logarithm of the concentration of the cold reference hormone and B/T as a function of the logarithm of the concentration of the cold product under test. The straight line of the equation:
B max=Percentage of bonded tritiated hormone for an incubation of this tritiated hormone at the concentration (T).
B min=Percentage of bonded tritiated hormone for an incubation of this tritiated hormone at the concentration (T) in the presence of a great excess of cold hormone (2500×10^-9 M).
The intersections of the straight line I50 and the curves allowed the evaluation of the concentrations of the cold reference hormone (CH) and of the cold product under test (CX) which inhibited by 50% the bonding of the tritiated hormone on the receptor. The relative bond affinity (RBA) of the product under test was determined by the equation RBA=100 (CH)/(CX)

In a further assay the test system is rat thymocytes. The assay is described as follows: anti-glucocorticoid activity vis-a-vis dexamethasone: incorporation of uridine in rat thymocytes. The assay is classed as cell-based. The note with it: for inhibition at 1 µM / inhibition at 0.1 µM / inhibition at 0.01 µM: Rattus norvegicus, Thymocyte, 3 h; for inhibition at 1 µM / inhibition at 0.1 µM / inhibition at 0.01 µM / % of inhibition of the incorporation of uridine: with 5×10^-8 M dexamethasone, 3 hours at 37° C.; for antiglucocorticoid activity: conclusion in words from the thymocyte study. From the text:
2) Anti-glucocorticoid activity vis-a-vis dexamethasone
Incorporation of uridine in rat thymocytes
Glucocorticoids cause an inhibition of the incorporation of nucleosides in lymphoid tissue and the measurement of the incorporation of radio-active uridine in the thymocytes in the presence of a product under test allow its glucocorticoid activity to be evaluated.
It was in accordance with the technique described by Dausse et al (3). The thymus of a suprarenalectomized rat weighing 160 to 180 g was removed, shredded and homogenized slowly using a teflon-flask homogenizer in Hanks solution. The cellular suspension obtained was filtered on gauze and then centrifuged at 800 g×10 mn. A new centrifugation was then carried out at 800 g×10 mn. The deposit was suspended in a nutritive medium (M.E.M. Gibco) and the cellular concentration was adjusted to approximately 20×10^6 cells per ml. Aliquots of 250 ul were then incubated under carbogen for 3 hours at 37° C. with 5×10^-8 M of dexamethasone in the presence or not of increasing concentrations of product (10^-8 M to 10^-6 M). 0.1 uCi of tritiated uridine was then added to each incubate and the incubation was continued for one hour. The incubates were then cooled and 1 ml of a cold solution of trichloracetic acid (TCA) at 5 % weight/volume was added. The precipitates were collected on Whatman GF/C filters and were washed with 4×2 ml of 5% iced TCA. The radioactivity retained on the filters (representing the tritiated uridine incorporated in the thymocytes) was measured using a liquid scintillation spectrometer.

Consider `CN(C)c1ccc([C@H]2C[C@@]3(C)[C@@H](CC[C@@]3(O)C#CCOC(=O)CCC(=O)O)[C@@H]3CCC4=CC(=O)CCC4=C32)cc1` [Example 4, Sodium and 3-[11β-[4-dimethylamino-phenyl]-Δ^4,9-estradien-17β-ol-3-one-17α-yl]-2-propynyl succinate], for which, at Glucocorticoid receptor, the “relative bond affinity (RBA), Glucocorticoid 4H” value was 31,5 and the “relative bond affinity (RBA), Glucocorticoid 24H” value was 27. Further, in the assay with rat thymocytes (product at 10^-6 M), the inhibition (usually the change of the read-out against control, counted positive when it falls) at 1 µM came to 22%. For the same compound, the inhibition at 0.1 µM in the assay with rat thymocytes (product at 10^-7 M) was 2.5%. In addition, the inhibition at 0.01 µM in the assay on rat thymocytes (product at 10^-8 M) stood at 0%.
The matching figures for `CN(C)c1ccc([C@H]2C[C@@]3(C)[C@@H](CC[C@]3(C#CCl)OC(=O)CCC(=O)O)[C@@H]3CCC4=CC(=O)CCC4=C32)cc1` [Example 10, Sodium and 21-chloro-11β-[4-dimethylamino-phenyl]-19-nor-17α-Δ^4,9-pregnadien-3-one-20-yn-17β-yl succinate]: 37, 77, 78%, 19% and 0%.
For `CN(C)c1ccc([C@H]2C[C@@]3(C)[C@@H](CC[C@@]3(O)/C=C\COC(=O)CCC(=O)O)[C@@H]3CCC4=CC(=O)CCC4=C32)cc1` [Example 2, Sodium (Z)-3-[11β-[4-dimethylamino-phenyl]-Δ^4,9-estradien-17β-ol-3-one-17α-yl]-2-propenyl succinate], at Glucocorticoid receptor, the “relative bond affinity (RBA), Glucocorticoid 4H” value is 62 and the “relative bond affinity (RBA), Glucocorticoid 24H” value is on record as 48. Moreover, the inhibition at 1 µM with rat thymocytes (product at 10^-6 M) was determined as 68%. Besides, the inhibition at 0.1 µM in the assay with rat thymocytes (product at 10^-7 M) worked out at 1%. Further, the inhibition at 0.01 µM in the assay on rat thymocytes (product at 10^-8 M) came to 0%.
On to `CC#C[C@]1(OC(=O)CCC(=O)O)CC[C@H]2[C@@H]3CCC4=CC(=O)CCC4=C3[C@@H](c3ccc(SC)cc3)C[C@@]21C` [Example 12, Sodium and 11β-[4-methylthio-phenyl]-17α-(1-propynyl)-Δ^4,9 estradien-3-one-17β-yl succinate], for which, at Glucocorticoid receptor, the “relative bond affinity (RBA), Glucocorticoid 4H” value is 9,5 and the “relative bond affinity (RBA), Glucocorticoid 24H” value was determined as 24. For the same compound, the inhibition at 1 µM in the assay on rat thymocytes (product at 10^-6 M) stood at 104%. The inhibition at 0.1 µM with rat thymocytes (product at 10^-7 M) turned out to be 62%. Besides, the inhibition at 0.01 µM with rat thymocytes (product at 10^-8 M) amounted to 8%. Also, the antiglucocorticoid activity entry in the assay with rat thymocytes is recorded as “good”.
Turning to `CC#C[C@]1(OC(=O)CCC(=O)O)CC[C@H]2[C@@H]3CCC4=CC(=O)CCC4=C3[C@@H](c3ccc(N(C)C)cc3)C[C@@]21C` [Example 6, Sodium 11β-[4-dimethylamino-phenyl]17α-(1-propynyl)-Δ^4,9 - estradien-3-one-17β-yl succinate], the “relative bond affinity (RBA), Glucocorticoid 4H” value on Glucocorticoid receptor (listed as EX. 6) is given as 26. Further, at Glucocorticoid receptor (listed as EX. 6), the “relative bond affinity (RBA), Glucocorticoid 24H” value amounted to 54. Moreover, the “% of inhibition of the incorporation of uridine” value came to 78% in the assay with rat thymocytes (product at 10^-6 M), 27% in the assay on rat thymocytes (product at 10^-7 M) and 0% in the assay with rat thymocytes (product at 10^-8 M).
In the case of `CC#C[C@]1(OC(=O)CCC(=O)O)CC[C@H]2[C@@H]3CCC4=CC(=O)CCC4=C3[C@@H](c3ccc(N(C)C)cc3)C[C@@]21C` [Example 5, 11β-[4-dimethylamino-phenyl]-17-(1-propynyl)-Δ^4,9-estradien-3-one-17β-yl acid succinate], the “relative bond affinity (RBA), Glucocorticoid 4H” value on Glucocorticoid receptor (listed as EX. 5) stood at 28. The “relative bond affinity (RBA), Glucocorticoid 24H” value on Glucocorticoid receptor (listed as EX. 5) was found to be 77. Also, in the assay on rat thymocytes, the antiglucocorticoid activity result is on record as “good”. Besides, the results for the “% of inhibition of the incorporation of uridine” value with rat thymocytes (product at 10^-6 M), in the assay with rat thymocytes (product at 10^-7 M) and in the assay with rat thymocytes (product at 10^-8 M) were 135%, 100% and 28%, respectively.

The record behind these values is patent US5276023A, “19-nor-steroid esters” (Roussel Uclaf, priority 1989, dated 1994).
